Measurements reported in PMC9138151, “Bioactive Phytochemicals of Citrus reticulata Seeds—An Example of Waste Product Rich in Healthy Skin Promoting Agents” (Antioxidants, 2022).
Values belong to the molecule of their own block, whether it stands above or below them.

Legend:
Xanthine oxidase = Xanthine oxidase (Homo sapiens, UniProt P47989); assay: In vitro assay of xanthine oxidase activity; format: biochemical; settings: for IC50: ± SD, triplicate
Protocol: Xanthine oxidase (XO) inhibitory potential was carried out according to the previously described method. The color produced because of hydrogen peroxide release during the process of oxidation of XO was measured at 570 nm using the plate reader EPOCH™ “MICROPLATE READER (BIOTEK)”. Forty-four microliters of xanthine oxidase buffer were mixed with 2 µL of xanthine substrate solution and 2 µL of XO. […] was applied as a positive control. This experiment was performed in triplicate.

cutaneous wound healing = test system: cutaneous wound healing; set-up: method as in PMID 20193736; settings: cited from earlier work
[1] = test system: tissue transglutaminase-2, TGF-1, and vascular endothelial growth factor; set-up: method as in PMID 20590611; settings: sham OVX rats; cited from earlier work
Tyrosinase = Tyrosinase (Agaricus bisporus, UniProt C7FF04); assay: In vitro assay of tyrosinase activity (DOPAchrome); format: biochemical
Protocol: The tyrosinase inhibitory activity was measured from the following equation: inhibitory activity (%) = (1 − A/B) × 100, (9) where A and B are the absorbance of the mixture in presence or absence of test flavonoid, respectively. Every experiment was done in triplicate.

wound healing = test system: wound healing; set-up: method as in PMID 28989011; settings: cited from earlier work
[2] = test system: incisional and excisional wounds; settings: topical application; diabetic and non-diabetic rats; cited from earlier work
injured skin = settings: cited from earlier work

Sequence of Xanthine oxidase (P47989 whole entry, species assumed): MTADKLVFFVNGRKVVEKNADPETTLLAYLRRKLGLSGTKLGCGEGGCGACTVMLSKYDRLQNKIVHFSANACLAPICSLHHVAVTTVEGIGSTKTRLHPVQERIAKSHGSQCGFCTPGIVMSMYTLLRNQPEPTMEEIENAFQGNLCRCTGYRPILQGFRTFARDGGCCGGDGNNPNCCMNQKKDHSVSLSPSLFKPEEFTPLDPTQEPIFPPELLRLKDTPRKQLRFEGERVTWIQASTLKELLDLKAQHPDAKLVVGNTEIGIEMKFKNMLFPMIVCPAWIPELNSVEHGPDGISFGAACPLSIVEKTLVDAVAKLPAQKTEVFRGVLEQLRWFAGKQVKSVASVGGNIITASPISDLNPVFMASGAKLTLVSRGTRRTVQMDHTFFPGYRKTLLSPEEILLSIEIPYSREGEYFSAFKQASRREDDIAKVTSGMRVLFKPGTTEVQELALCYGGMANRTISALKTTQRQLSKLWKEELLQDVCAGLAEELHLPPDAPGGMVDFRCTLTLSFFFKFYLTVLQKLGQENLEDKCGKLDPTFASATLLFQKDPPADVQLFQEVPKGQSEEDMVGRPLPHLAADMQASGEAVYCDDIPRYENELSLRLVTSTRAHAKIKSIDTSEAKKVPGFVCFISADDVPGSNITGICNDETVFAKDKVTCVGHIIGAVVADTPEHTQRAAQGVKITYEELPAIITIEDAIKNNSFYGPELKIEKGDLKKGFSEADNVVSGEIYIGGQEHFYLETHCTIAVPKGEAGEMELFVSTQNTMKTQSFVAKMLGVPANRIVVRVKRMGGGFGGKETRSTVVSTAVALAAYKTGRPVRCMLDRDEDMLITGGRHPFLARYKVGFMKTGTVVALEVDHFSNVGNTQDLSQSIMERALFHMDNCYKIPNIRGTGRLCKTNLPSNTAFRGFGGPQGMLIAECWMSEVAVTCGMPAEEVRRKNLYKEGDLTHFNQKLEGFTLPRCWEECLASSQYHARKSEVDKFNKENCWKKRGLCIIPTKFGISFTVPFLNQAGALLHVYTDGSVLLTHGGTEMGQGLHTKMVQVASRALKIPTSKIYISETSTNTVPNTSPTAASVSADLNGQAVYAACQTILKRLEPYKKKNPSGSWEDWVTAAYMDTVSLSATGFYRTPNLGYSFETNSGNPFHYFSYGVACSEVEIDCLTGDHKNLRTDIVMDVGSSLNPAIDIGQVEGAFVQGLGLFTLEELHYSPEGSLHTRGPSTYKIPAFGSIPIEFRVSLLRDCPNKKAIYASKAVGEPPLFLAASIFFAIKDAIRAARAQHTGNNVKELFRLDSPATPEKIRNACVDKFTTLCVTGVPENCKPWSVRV
Sequence of Tyrosinase (C7FF04 1-392): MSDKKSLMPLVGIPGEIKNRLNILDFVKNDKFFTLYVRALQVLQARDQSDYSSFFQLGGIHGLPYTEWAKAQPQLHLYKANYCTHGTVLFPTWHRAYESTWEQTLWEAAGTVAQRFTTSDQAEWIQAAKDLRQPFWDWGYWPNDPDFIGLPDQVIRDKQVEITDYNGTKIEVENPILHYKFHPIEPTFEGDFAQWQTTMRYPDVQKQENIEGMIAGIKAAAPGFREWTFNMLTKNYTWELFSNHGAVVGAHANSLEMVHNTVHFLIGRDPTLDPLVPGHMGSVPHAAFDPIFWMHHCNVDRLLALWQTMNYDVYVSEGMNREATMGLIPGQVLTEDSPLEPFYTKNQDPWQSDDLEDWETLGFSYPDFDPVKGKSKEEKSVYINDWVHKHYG

- activity against xanthine oxidase (in words) (Xanthine oxidase): weak or inactivity
- IC50 (Xanthine oxidase): > 100 µM
Structure (SMILES): COc1ccc([C@@H]2CC(=O)c3c(O)cc(O)cc3O2)cc1O [Compound 5, hesperetin]

Structure (SMILES): O=c1c(-c2ccc(O)cc2)coc2cc(O)cc(O)c12 [Genistein]
- wound healing (cutaneous wound healing): accelerated wound healing
- effect on tissue transglutaminase-2, TGF-1 and vascular endothelial growth factor [1]: reduced tissue transglutaminase-2, TGF-1, and vascular endothelial growth factor

Structure (SMILES): O=c1c(O)c(-c2ccc(O)cc2)oc2cc(O[C@@H]3O[C@H](CO)[C@@H](O)[C@H](O)[C@H]3O)cc(O)c12 [Compound 3, kaempferol-7-O-β-D-glucopyranoside]
- activity against tyrosinase (in words) (Tyrosinase): inactive or weakly active
- IC50 (Xanthine oxidase): 6.39 ± 0.36 µM

Structure (SMILES): O=c1c(-c2ccc(O)cc2)c(O)oc2cc(O)cc(O)c12 [Compound 4, 2-hydroxygenistein]
- wound healing (wound healing): promote wound healing

Structure (SMILES): O=c1c(O)c(-c2ccc(O)cc2)oc2cc(O)cc(O)c12 [Compound 1, kaempferol]
- wound healing effect [2]: healing effects

- IC50 (Xanthine oxidase): 3.63 ± 0.18 µM
Structure (SMILES): N[C@@H](Cn1ccc(=O)c(O)c1)C(=O)O [L-mimosine, reference compound]

Structure (SMILES): COc1ccc([C@@H]2CC(=O)c3c(O)cc(O[C@@H]4O[C@H](CO[C@@H]5O[C@@H](C)[C@H](O)[C@@H](O)[C@H]5O)[C@@H](O)[C@H](O)[C@H]4O)cc3O2)cc1O [Hesperidin]
- healing of injured skin (injured skin): sufficient healing benefits on injured skin

- activity against tyrosinase (in words) (Tyrosinase): inactive or weakly active
- activity against xanthine oxidase (in words) (Xanthine oxidase): weak or inactivity
- IC50 (Xanthine oxidase): 73.7 ± 2.33 µM
Structure (SMILES): O=c1c(O)c(-c2ccc(O[C@@H]3O[C@H](CO)[C@@H](O)[C@H](O)[C@H]3O)cc2)oc2cc(O)cc(O)c12 [Compound 2, kaempferol-4′-O-β-D-glucopyranoside]
